# Values quoted from earlier work in patent publication EP4407007A1, “ECO-FRIENDLY INK FORMULATION, PARTICULARLY FOR BALLPOINT PENS AND ASSOCIATED BALLPOINT PEN CARTRIDGE” (Reinol S.r.l., priority 2023, dated 2024).
# How the values were obtained:
# Fish = settings: hazard category
# [1] = hazard category
# [2] = hazard category; remark: listed apart in the source
Structure (SMILES),Aquatic toxicity Fish (Fish),Skin irritation [1],Acute toxicity Oral inhalation [2]
"CC1(C)OCC(CO)O1 (racemic) [2,2-dimethyl-1,3-dioxolane-4-yl-methanol]",Unclassified,Unclassified,Unclassified
OCc1ccccc1 [benzyl alcohol],Category 2,Category 2,Category 4
